Like-named read-outs stand apart in the source and are kept apart here. Marks after values point to notes of the source that are not given here. Bridge positions count the residues as written; N and C are the ends. Square brackets hold non-standard residues; d marks the D form. Peptide text beside a SMILES is read from it. * marks the point of attachment. Phe(2-CONH2) = NC(=O)c1ccccc1C[C@H](N)C(=O)O; Orn(iPr) = CC(C)NCCC[C@H](N)C(=O)O; Oxazole2carbonyl = O=C(c1ncco1)*; 3Pal = N[C@@H](Cc1cccnc1)C(=O)O
How the values were obtained:
[1] = Phase I first-in-human study, pharmacokinetics after single ascending subcutaneous doses in healthy volunteers; type: in vivo; settings: for level at 3 h: nominal time 3 h; for T10nM: time to 10 nM; for T30nM: time to 30 nM; for T100nM: time to 100 nM
Procedure: For Phase I clinical studies, the 32 mg/mL pharmaceutical composition was dosed subcutaneously. The Phase I clinical trial was a randomised, double-blind, placebo-controlled, first-in-human study of the safety, tolerability and pharmacokinetics of AXN-001 in healthy volunteers under Protocol No. AXN-001-01 .
The pharmacokinetic objective of the clinical trial was to provide pharmacokinetic analysis of AXN-001 following single ascending subcutaneous doses of AXN-001. The study design included the following Cohorts: • Cohort 1: Dose 1 mg (2 mg/mL formulation); • Cohort 2: Dose 2 mg (4 mg/mL formulation); • Cohort 3: Dose 4 mg (8 mg/mL formulation); • Cohort 4: Dose 8 mg (16 mg/mL formulation); • Cohort 5: Dose 16 mg (32 mg/mL formulation).
Participants were administered a single dose (0.5 mL) of AXN-001 or placebo via subcutaneous (SC) injection into the abdomen. Blood samples were collected at specified time points for pharmacokinetic analysis (5,10,15,20,30,45,60 minutes; 2,3,4,6,8,12,24 hours). Individual plasma concentrations of ANX-001 were determined and used for analyses.
Pharmacokinetic (PK) parameters of AXN-001 were determined using Phoenix WinNonlin version 8.3. All concentrations below the limit of quantification (BLQ) were set to zero for the purpose of the PK analysis. All AUC determinations were made using linear trapezoidal method. The following parameters were determined: Cmax Maximum observed concentration. as read directly from the observed data. Tmax Time to maximum concentration T10nM Time to 10 nM T30nM Time to 30 nM T100nM Time to 100 nM AUC0-t Area under the concentration-time curve from time zero to the time of the last measurable concentration, calculated using linear trapezoidal rule AUC0-inf Area under the concentration-time curve from time zero to infinity, calculated using linear trapezoidal rule %AUCextrap The portion of AUC determined by extrapolation t1/2 Apparent terminal elimination half-life CL/F or CL Total apparent body clearance Vz/F or Vz Apparent volume of distribution λz Terminal elimination rate constant

Solubility of AXN-001 = type: physicochemical; settings: neutral pH
[2] = human, plasma, single SC dose 16 mg, mean

CC(C)NCCC[C@@H]1NC(=O)[C@@H](NC(=O)[C@H](Cc2ccccc2C(N)=O)NC(=O)[C@H](NC(=O)c2ncco2)C(C)C)CSSC[C@@H](C(=O)N[C@@H](Cc2cccnc2)C(N)=O)NC(=O)[C@H](Cc2ccccc2)NC(=O)[C@@H]2CCCN2C(=O)CNC(=O)[C@H](C(C)C)NC(=O)[C@H](CC(=O)O)NC1=O [AXN-001, Oxazole-2-carbonyl-D-Val-Phe(2-Cbm)-c(Cys-Orn (iPr)-Asp-Val-Gly-Pro-Phe-Cys)-3Pal-NH2] (Oxazole2carbonyl-[dV][Phe(2-CONH2)]C[Orn(iPr)]DVGPFC[3Pal]-NH2; disulfide 3-10)
level at 3 h ([1]; human, plasma, single SC dose 8 mg, mean, read-out: Plasma Concentration AXN-001): 72 ng/mL
level at 4 h ([1]; human, plasma, single SC dose 8 mg, nominal time 4 h, mean, read-out: Plasma Concentration AXN-001): 38.7 ng/mL
level at 6 h ([1]; human, plasma, single SC dose 8 mg, nominal time 6 h, mean, read-out: Plasma Concentration AXN-001): 13.9 ng/mL
level at 8 h ([1]; human, plasma, single SC dose 8 mg, nominal time 8 h, mean, read-out: Plasma Concentration AXN-001): 5.8 ng/mL
level at 12 h ([1]; human, plasma, single SC dose 8 mg, nominal time 12 h, mean, read-out: Plasma Concentration AXN-001): 0.38 ng/mL
AUC(0-inf) [1, 2]: 1250 ng·h/mL
AUC(0-t) [1, 2]: 1230 ng·h/mL
CL/F [1, 2]: 222 mL/min
Cmax [1, 2]: 381 ng/mL
Tmax [1, 2]: 0.958 h
half-life [1, 2]: 2.8 h
level at 0.08 h ([1]; human, plasma, single SC dose 16 mg, nominal time 0.08 h, mean, read-out: Plasma Concentration AXN-001): 27.4 ng/mL
level at 0.17 h ([1]; human, plasma, single SC dose 16 mg, nominal time 0.17 h, mean, read-out: Plasma Concentration AXN-001): 83.4 ng/mL
level at 0.25 h ([1]; human, plasma, single SC dose 16 mg, nominal time 0.25 h, mean, read-out: Plasma Concentration AXN-001): 139 ng/mL
level at 0.33 h ([1]; human, plasma, single SC dose 16 mg, nominal time 0.33 h, mean, read-out: Plasma Concentration AXN-001): 183 ng/mL
level at 0.5 h ([1]; human, plasma, single SC dose 16 mg, nominal time 0.50 h, mean, read-out: Plasma Concentration AXN-001): 294 ng/mL
level at 0.75 h ([1]; human, plasma, single SC dose 16 mg, nominal time 0.75 h, mean, read-out: Plasma Concentration AXN-001): 355 ng/mL
level at 1 h ([1]; human, plasma, single SC dose 16 mg, nominal time 1 h, mean, read-out: Plasma Concentration AXN-001): 380 ng/mL
level at 2 h ([1]; human, plasma, single SC dose 16 mg, nominal time 2 h, mean, read-out: Plasma Concentration AXN-001): 277 ng/mL
level at 3 h ([1]; human, plasma, single SC dose 16 mg, mean, read-out: Plasma Concentration AXN-001): 170 ng/mL
level at 4 h ([1]; human, plasma, single SC dose 16 mg, nominal time 4 h, mean, read-out: Plasma Concentration AXN-001): 96.8 ng/mL
level at 6 h ([1]; human, plasma, single SC dose 16 mg, nominal time 6 h, mean, read-out: Plasma Concentration AXN-001): 44 ng/mL
level at 8 h ([1]; human, plasma, single SC dose 16 mg, nominal time 8 h, mean, read-out: Plasma Concentration AXN-001): 23.7 ng/mL
level at 12 h ([1]; human, plasma, single SC dose 16 mg, nominal time 12 h, mean, read-out: Plasma Concentration AXN-001): 9.2 ng/mL
%AUCextrap ([1]; single SC dose 1 mg, mean): 5.37%
Vz/F ([1]; single SC dose 1 mg, mean): 19.1 L
λz ([1]; single SC dose 1 mg, mean): 0.535 h⁻¹
Plasma Concentration AXN-001 ([1]; single SC dose 1 mg, nominal time 0.08 h, mean): 4.96 ng/mL
Plasma Concentration AXN-001 ([1]; single SC dose 1 mg, nominal time 0.17 h, mean): 12.8 ng/mL
Plasma Concentration AXN-001 ([1]; single SC dose 1 mg, nominal time 0.25 h, mean): 17.9 ng/mL
Plasma Concentration AXN-001 ([1]; single SC dose 1 mg, nominal time 0.33 h, mean): 28.5 ng/mL
Plasma Concentration AXN-001 ([1]; single SC dose 1 mg, nominal time 0.50 h, mean): 34.8 ng/mL
Plasma Concentration AXN-001 ([1]; single SC dose 1 mg, nominal time 0.75 h, mean): 39.3 ng/mL
Plasma Concentration AXN-001 ([1]; single SC dose 1 mg, nominal time 4 h, mean): 7.47 ng/mL
Plasma Concentration AXN-001 ([1]; single SC dose 1 mg, nominal time 6 h, mean): 2.8 ng/mL
Plasma Concentration AXN-001 ([1]; single SC dose 1 mg, nominal time 8 h, mean): 0 ng/mL
Plasma Concentration AXN-001 ([1]; single SC dose 1 mg, nominal time 12 h, mean): 0 ng/mL
T10nM ([1]; single SC dose 1 mg): 12 min
T30nM ([1]; single SC dose 1 mg, marked *, 1 of 6 subjects reached 30nM): 19* min
%AUCextrap ([1]; single SC dose 2 mg, mean): 4.98%
Vz/F ([1]; single SC dose 2 mg, mean): 24.6 L
λz ([1]; single SC dose 2 mg, mean): 0.528 h⁻¹
Plasma Concentration AXN-001 ([1]; single SC dose 2 mg, nominal time 12 h, mean): 0 ng/mL
T10nM ([1]; single SC dose 2 mg): 9 min
T30nM ([1]; single SC dose 2 mg, marked *, 5 of 6 subjects reached 30nM): 21* min
%AUCextrap ([1]; single SC dose 4 mg, mean): 1.82%
Vz/F ([1]; single SC dose 4 mg, mean): 23.3 L
λz ([1]; single SC dose 4 mg, mean): 0.517 h⁻¹
T10nM ([1]; single SC dose 4 mg): 6 min
T30nM ([1]; single SC dose 4 mg): 11 min
T100nM ([1]; single SC dose 4 mg, marked *, 2/5 of cohort reached 100nM): 25* min
%AUCextrap ([1]; single SC dose 8 mg, mean): 1.58%
Vz/F ([1]; single SC dose 8 mg, mean): 28.7 L
λz ([1]; single SC dose 8 mg, mean): 0.481 h⁻¹
T10nM ([1]; single SC dose 8 mg): 3 min
T30nM ([1]; single SC dose 8 mg): 7 min
T100nM ([1]; single SC dose 8 mg): 21 min
%AUCextrap ([1]; single SC dose 16 mg, mean): 1.51%
Vz/F ([1]; single SC dose 16 mg, mean): 55.3 L
λz ([1]; single SC dose 16 mg, mean): 0.292 h⁻¹
T10nM ([1]; single SC dose 16 mg): 3 min
T30nM ([1]; single SC dose 16 mg): 7 min
T100nM ([1]; single SC dose 16 mg): 17 min
free plasma concentration (Figure 5) ([1]; within 30 minutes, compared with olcegepant, zavegepant, rimegepant and ubrogepant, consistent up to 120 minutes): much higher increase in free plasma concentration
solubility (Solubility of AXN-001): low

From EP4647082A1, “PHARMACEUTICAL COMPOSITION COMPRISING A CGRP RECEPTOR ANTAGONIST FOR THE TREATMENT OF ACUTE MIGRAINE” (NUVIE BIO, Inc., priority 2024, dated 2025)
